Here are results for 19 compounds from patent publication US10961233B2 (LIFEARC, priority 2016, dated 2021).

One assay has as its target WT full length PAICS (Homo sapiens (Human), UniProt P22234). The experiment in a line: Biochemical assay to measure PAICS activity (Transcreener ADP2 FI). The following applies: SAICAR synthetase reaction, ADP detection, 30 min pre-incubation. An excerpt:
Biochemical Assay to Measure PAICS Activity
The biochemical assay was used to measure PAICS SAICAR synthetase-mediated conversion of CAIR, aspartic acid and ATP to SAICAR, ADP and inorganic phosphate (Pi), post-AIR/CAIR equilibration (see FIG. 3). This was achieved by detecting the ADP generated during the reaction, using Bellbrook Lab's Transcreener ADP^2 FI assay. An increase in the fluorescence intensity is directly proportional to the amount of PAICS activity.
The Transcreener ADP^2 FI assay is a homogeneous competitive displacement fluorescence intensity assay which uses direct immunodetection of ADP. Displacement of the tracer by ADP causes an increase in the fluorescence at excitation 590 nm and emission 617 nm (FIG. 3).
5 μl WT full length PAICS (final assay concentration, fac, 2.5 nM) in basic buffer, added to black, non-binding, 384-well plates (Corning #3575), columns 1 to 22. 5 μl basic buffer was added to columns 23+24 (negative control). PAICS stock at 31.9 μM from the PI's lab (Steve Firestine). Basic buffer contained 50 mM Tris-HCl pH8 and 0.5 mM EDTA, fac.
1 μl compound in 100% DMSO added per well, or 1 μl 100% DMSO to positive controls (columns 1+2) and negative controls (columns 23+24). Final assay top concentration of compound either 1 mM or 30-μM, serially diluted with half-log dilutions across the plate in duplicate (one 10-point concentration response curve across wells 3 to 12, another across 13 to 22). Compounds pre-incubated with PAICS enzyme for 30 mins at RT. 2 μl CAIR added (fac 10 μM) in basic buffer plus 25 mM MgCl2 and 50 mM KHCO3 fac to all wells. CAIR stock 50 mM from Steve Firestine's lab. 1 hr RT incubation for AIR-CAIR equilibration. NB: ˜50% CAIR is decarboxylated during equilibration therefore 5 μM remains for the synthetase reaction.
2 μl ATP/aspartic acid added (fac 30 μM/180 μM) in reaction buffer to all wells. 30 mins RT incubation for appropriate level of ATP turnover. Reaction buffer contained basic buffer plus 10 mM DTT, 0.01% BSA and 0.01% Brij 35, fac.
10 μl ADP detection reagent added to all wells (as per instructions, Transcreener ADP^2 FI kit, BellBrook Labs #3013-10K). Incubation for 1 h at RT to allow antibody equilibration. Fluorescence intensity determined using a Tecan Safire2 (excitation at 590 nm, emission at 617 nm).

Assay [1] relates to LM2 and MDA-MB-231 breast cancer cell lines. Briefly: PAICS 2D cell proliferation assay (CellTiter-Glo viability, 72 h). It is filed as cell-based. Conditions: Homo sapiens; 72 h incubation; cell line not given. As to the method: PAICS 2D Cell Proliferation Assay
Frozen cryovial stocks of LM2 and MDA-MB-231 breast cancer cell lines were thawed and cultured in 4.5 g/L glucose DMEM (31966-047, Invitrogen) supplemented with 10% Fetal Bovine Serum (10500-064, Invitrogen) until confluent in a T175 flask. Cells were incubated at 37° C. with 5% CO2 in a humidified incubator.
Cells were collected from T175 flasks by washing with PBS (10010-056, Invitrogen) and dissociated using Accutase (A6964, Sigma Aldrich). This was followed by centrifuging (1200 rpm, 5 min) and resuspending the cells in 10 ml of media containing 1% penicillin/streptomycin (15140-122, Invitrogen). Cells were counted by trypan blue exclusion method using an automated cell counter (Cellometer) and diluted to a concentration of 40,000/ml. 1000 cells were then seeded into 384-well white-walled plates (Corning, 3707) in a volume of 25 μl. Plates were Incubated overnight at 37° C. with 5% CO2.
After 24 hours, PAICS compounds were added onto the assay plates using an HP D300 Digital Dispenser (Hewlett Packard). 10 mM stocks were used and dispensed as a 10 point concentration response curve (CRC) ½ log dilution series with a final top concentration of 100 μM. Controls were added onto each plate: positive controls included Staurosporine CRC (100 μM stock dispensed as a 10 point CRC ½ log dilution series with a final top concentration of 1 μM) and PAICS compound MRT00211919 (10 mM stock dispensed as a 10 point CRC ½ log dilution series with a final top concentration of 100 μM); a high control of Staurosporine (0.1 μM (LM2), 0.316 μM (MDA-MB-231) FAC) and a low control of media containing 1% DMSO. A final concentration of 1% DMSO was then added across the plates for normalisation. Following compound addition, assay plates were incubated for 72 hours at 37° C. with 5% CO2.
Day 5—Cytotoxicity and Cell Viability Assays
After 72 h incubation, dead and viable cells were measured in each assay plate. Cytotoxicity was assessed through fluorescent DNA staining using the CellTox™ Green Cytotoxicity Assay kit (G8743, Promega) following the manufacturer's multiplexing protocol. Impaired cell membrane integrity results in the access of dye to stain DNA allowing quantification of dead cells. Cell viability was determined following ATP quantification using the CellTiter-Glo® Luminescent Cell Viability Assay kit (G7572, Promega) following the manufacturer's protocol. ATP released from lysed cells allowed for the generation of a signal proportional to the number of cells present in the well. All endpoint reads were performed using the PheraSTAR Plus (BMG Labtech). Data is expressed as % viable cells and % dead cells against controls (mean±SEM of duplicate curves).
(ATP-based viability assays read luminescence as a measure of living cells.)

Sequence of WT full length PAICS (P22234 whole entry): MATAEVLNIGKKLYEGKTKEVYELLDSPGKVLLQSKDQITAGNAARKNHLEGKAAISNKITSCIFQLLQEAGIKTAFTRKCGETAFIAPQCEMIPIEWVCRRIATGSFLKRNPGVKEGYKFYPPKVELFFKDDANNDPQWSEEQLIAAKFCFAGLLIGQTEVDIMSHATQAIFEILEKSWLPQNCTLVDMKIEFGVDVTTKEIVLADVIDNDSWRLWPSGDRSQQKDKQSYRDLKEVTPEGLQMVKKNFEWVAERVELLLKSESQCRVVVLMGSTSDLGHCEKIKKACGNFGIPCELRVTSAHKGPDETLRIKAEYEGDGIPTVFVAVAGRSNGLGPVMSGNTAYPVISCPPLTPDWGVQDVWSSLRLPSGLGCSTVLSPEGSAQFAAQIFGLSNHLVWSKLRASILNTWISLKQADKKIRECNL

The IC50 is the concentration at which inhibition is half-maximal. As usually defined, the EC50 is the midpoint of the concentration-response curve. Read a high EC50 as weaker potency. Take `CC(C)NCCS(=O)(=O)N1CCN(c2ccc(Cl)c(NC(=O)c3coc(N)n3)c2)CC1` [Example 61, 2-Amino-N-[2-chloro-5-(4-{[2-(propan-2-ylamino)ethyl]sulfonyl}piperazin-1-yl)phenyl]-1,3-oxazole-4-carboxamide]: at WT full length PAICS, the IC50 lay within 10 to 25 nM. The compound further displayed an EC50 in assay [1] of 100 to 250 nM.
The matching figures for `CN1CCC(NCCS(=O)(=O)N2CCN(c3ccc(Cl)c(NC(=O)c4coc(N)n4)c3)CC2)CC1` [Example 62, 2-Amino-N-{2-chloro-5-[4-({2-[(1-methylpiperidin-4-yl)amino]ethyl}sulfonyl)piperazin-1-yl]phenyl}-1,3-oxazole-4-carboxamide]: 10 to 25 nM and 250 to 500 nM.
`CC(C)NCCS(=O)(=O)N1CCN(c2ccc(Br)c(NC(=O)c3coc(N)n3)c2)CC1` [Example 63]: the IC50 at WT full length PAICS is under 10 nM. For the same compound, in assay [1], the EC50 is under 100 nM.
Taken in the same sequence, the figures for `CN1CCC(NCCS(=O)(=O)N2CCN(c3ccc(Br)c(NC(=O)c4coc(N)n4)c3)CC2)CC1` [Example 64, 2-Amino-N-{2-bromo-5-[4-({2-[(1-methylpiperidin-4-yl)amino]ethyl}sulfonyl)piperazin-1-yl]phenyl}-1,3-oxazole-4-carboxamide] were under 10 nM and 100 to 250 nM.
`CCNCCS(=O)(=O)N1CCN(c2ccc(Cl)c(NC(=O)c3coc(N)n3)c2)CC1` [Example 65, 2-Amino-N-[2-chloro-5-(4-{[2-(ethylamino)ethyl]sulfonyl}piperazin-1-yl)phenyl]-1,3-oxazole-4-carboxamide] returned an IC50 at WT full length PAICS of 10 to 25 nM. For the same compound, the EC50 in assay [1] was 100 to 250 nM.
For the compound `CCCNCCS(=O)(=O)N1CCN(c2ccc(Cl)c(NC(=O)c3coc(N)n3)c2)CC1` [Example 66, 2-Amino-N-[2-chloro-5-(4-{[2-(propylamino)ethyl]sulfonyl}piperazin-1-yl)phenyl]-1,3-oxazole-4-carboxamide], at WT full length PAICS, the IC50 fell in the range of 10 to 25 nM. The compound also showed a 50% effective concentration (EC50) in assay [1] of 100 to 250 nM.
The matching figures for `Nc1nc(C(=O)Nc2cc(N3CCN(S(=O)(=O)CCCN4CCCC4)CC3)ccc2Br)co1` [Example 67, 2-Amino-N-[2-bromo-5-(4-{[3-(pyrrolidin-1-yl)propyl]sulfonyl}piperazin-1-yl)phenyl]-1,3-oxazole-4-carboxamide]: under 10 nM and under 100 nM.
Taken in the same sequence, the figures for `CN(C)CCCS(=O)(=O)N1CCN(c2ccc(Cl)c(NC(=O)c3coc(N)n3)c2)CC1` [Example 68, 2-Amino-N-[2-chloro-5-(4-{[3-(dimethylamino)propyl]sulfonyl}piperazin-1-yl)phenyl]-1,3-oxazole-4-carboxamide] were 10 to 25 nM and 250 to 500 nM.
The matching figures for `CCNCCCS(=O)(=O)N1CCN(c2ccc(Br)c(NC(=O)c3coc(N)n3)c2)CC1` [Example 70, 2-Amino-N-[2-bromo-5-(4-{[3-(ethylamino)propyl]sulfonyl}piperazin-1-yl)phenyl]-1,3-oxazole-4-carboxamide]: under 10 nM and under 100 nM.
`CC(C)NCCCS(=O)(=O)N1CCN(c2ccc(Cl)c(NC(=O)c3coc(N)n3)c2)CC1` [Example 72, 2-Amino-N-[2-chloro-5-(4-{[3-(propan-2-ylamino)propyl]sulfonyl}piperazin-1-yl)phenyl]-1,3-oxazole-4-carboxamide] gave an IC50 against WT full length PAICS of under 10 nM. In assay [1], this compound registered a 50% effective concentration (EC50) of 100 to 250 nM.
Taken in the same sequence, the figures for `CNCCCS(=O)(=O)N1CCN(c2ccc(Cl)c(NC(=O)c3coc(N)n3)c2)CC1` [Example 73, 2-Amino-N-[2-chloro-5-(4-{[3-(methylamino)propyl]sulfonyl}piperazin-1-yl)phenyl]-1,3-oxazole-4-carboxamide] were 10 to 25 nM and 250 to 500 nM.
At WT full length PAICS, `CCNCCCS(=O)(=O)N1CCN(c2ccc(Cl)c(NC(=O)c3coc(N)n3)c2)CC1` [Example 74] yielded a half-maximal inhibitory concentration (IC50) of under 10 nM. In assay [1], this compound yielded an EC50 of 250 to 500 nM.
The matching figures for `CNCCCS(=O)(=O)N1CCN(c2ccc(Br)c(NC(=O)c3coc(N)n3)c2)CC1` [Example 75, 2-Amino-N-[2-bromo-5-(4-{[3-(methylamino)propyl]sulfonyl}piperazin-1-yl)phenyl]-1,3-oxazole-4-carboxamide]: under 10 nM and 100 to 250 nM.
On WT full length PAICS, `CC(C)NCCCS(=O)(=O)N1CCN(c2ccc(Br)c(NC(=O)c3coc(N)n3)c2)CC1` [Example 76, 2-Amino-N-[2-bromo-5-(4-{[3-(propan-2-ylamino)propyl]sulfonyl}piperazin-1-yl)phenyl]-1,3-oxazole-4-carboxamide] came in with an IC50 of under 10 nM. Besides, the EC50 in assay [1] was under 100 nM.
Taken in the same sequence, the figures for `CCN(CC)CCCS(=O)(=O)N1CCN(c2ccc(Br)c(NC(=O)c3coc(N)n3)c2)CC1` [Example 77, 2-Amino-N-[2-bromo-5-(4-{[3-(diethylamino)propyl]sulfonyl}piperazin-1-yl)phenyl]-1,3-oxazole-4-carboxamide] were under 10 nM and under 100 nM.
The matching figures for `Nc1nc(C(=O)Nc2cc(N3CCN(S(=O)(=O)C4CCNCC4)CC3)ccc2Br)co1` [Example 84]: under 10 nM and 100 to 250 nM.
Taken in the same sequence, the figures for `CN1CCC(S(=O)(=O)N2CCN(c3ccc(Br)c(NC(=O)c4coc(N)n4)c3)CC2)CC1` [Example 85, 2-Amino-N-(2-bromo-5-{4-[(1-methylpiperidin-4-yl)sulfonyl]piperazin-1-yl}phenyl)-1,3-oxazole-4-carboxamide] were under 10 nM and 100 to 250 nM.
As for `Nc1nc(C(=O)Nc2cc(N3CCN(S(=O)(=O)C4CCNCC4)CC3)ccc2Cl)co1` [Example 86, 2-Amino-N-{2-chloro-5-[4-(piperidin-4-ylsulfonyl)piperazin-1-yl]phenyl}-1,3-oxazole-4-carboxamide], the IC50 on WT full length PAICS was 10 to 25 nM. In addition, the EC50 in assay [1] was in the range of 250 to 500 nM.
As for `CN1CCC(S(=O)(=O)N2CCN(c3ccc(Cl)c(NC(=O)c4coc(N)n4)c3)CC2)CC1` [Example 87, 2-Amino-N-{2-chloro-8-(4-[(1-methylpiperidin-4-yl)sulfonyl]piperazin-1-yl}phenyl)-1,3-oxazole-4-carboxamide], the IC50 at WT full length PAICS fell in the range of 10 to 25 nM. This compound returned an EC50 in assay [1] of 250 to 500 nM.
